Test results as given in US20200215018A1, “Gold(I) And Platinum(II) With Isocyanide Ligand Complexes: Synthesis And Biological Activity” (BOARD OF TRUSTEES OF THE UNIVERSITY OF ARKANSAS, priority 2019, published 2020).
Like-named read-outs stand apart in the source and are kept apart here.

Assays:
[1] = tested on: ovarian carcinoma (SKOV3); experiment: In vitro cytotoxicity against SKOV3; format: cell-based, human
breast carcinoma (MCF-7) = experiment: In vitro cytotoxicity against MCF-7; format: cell-based, human
[2] = tested on: MCF-10A; normal human epithelial breast cell line; experiment: Proliferation of non-tumoral cell line MCF-10A; format: cell-based; details: Table 3, non-cancerous cell line; read-out: (IC50 ± SD) μM MCF-10A
Protocol: In addition, to verify the selectivity between cancer and normal cell line, the effects of these compounds on the proliferation of non-tumoral cell line (MCF-10A; normal human epithelial breast cell line) were also determined. […] In order to gain some more insight in the structure-activity relationship of the synthesized trans-Pt(II) complexes, the chemical descriptors of them such as surface area, volume, hydration energy, logP (measure of lipophilicity), refractivity (measuring the total polarizability of a mole of a compound), polarizability and mass were calculated using Hyperchem 8 software. The greater logP (lipophilicity) of complex 3a confirmed the importance of this descriptors for the cytotoxic activity of the trans-Pt(II) complexes.

MCF-7 cells [3] = details: MCF-7, compared to untreated cells
Text: Quantitation of DNA content using flow cytometry or cell cycle analysis, is a basic method which is commonly used to assess the mechanisms of antiproliferative effects of anticancer drugs. In this method, a fluorescent DNA binding dye (in the present study: propidium iodide, PI) is used to stain DNA and measure the amount of DNA present in the cell. The cells in the G2 phase are expected to absorb approximately twice the amount of color compared to the cells in G1 as their DNA content has been doubled during S phase. Therefore, the cells in S phase have more DNA than G1 cells but less than G2 ones.

MCF-7 cells [4] = experiment: Comet assay (genotoxicity); format: cell-based, human
Text: (§1) Here, comet assay was used as a valuable method to predict the genotoxic effect of new synthesized trans-Pt(II) complexes on cancerous cells. In this single cell microgel electrophoresis method, following the DNA damage, the migration of chromosomal DNA from the nucleus increases and resembles the shape of a tail or comet. The longer tails display the more genotoxicity, while untreated cells as un-fragmented cells, represent a little or no tail.
(§2) This is also effected by differences in the concentrations of complex 3a in comparison to untreated cells (negative control). pGEM-FT plasmid in circular form was incubated with different concentrations of cisplatin (positive controls) as well as complex 3a for 24 h.

pGEM-FT plasmid = experiment: Electrophoresis mobility shift assay, pGEM-FT plasmid; format: binding; details: 24 h, compared to cisplatin positive control
Protocol: FIG. 10 is a mobility shift assay of 1a compound. pGEM-FT plasmid in circular form was incubated with different concentrations of cisplatin (positive controls) as well as compound 1a for 24 h for additional embodiments of the present invention.
as §1, with “tail. […] It could also be seen that compared to the untreated control, complex 3a could make a nick in DNA and subsequently slightly shift the mobility of the plasmid in a dose dependent manner. These observations confirm the direct interaction of complex 3a with DNA through genotoxic effect as observed in comet assay.” for “tail.”
as §2

SKOV3 cells = experiment: Intracellular ROS determination by flow cytometry (DCFH-DA); format: cell-based, human; details: SKOV3, 10, 20, 40 μM
Protocol: Changes in ROS levels were expressed as a ratio of the mean fluorescence intensity (MFI) in each condition divided by the basal intensity of the ROS at the untreated cells (negative controls, MFI0).
Flow cytometry was used for determination of cellular reactive oxygen species (ROS) in SKOV3 cell line after treatment with complex 3a. In this highly sensitive method, to consider ROS formation, SKOV3 cells were treated with complex 3a and H2O2 (positive control) and stained with 2′,7′-Dichlorodihydrofluorescein diacetate (DCFH-DA), a cell-permanent non-fluorescent dye which is oxidized by cellular ROS and produce 2′,7′-dichlorofluorescein (DCF) fluorescent component. The intensity of DCF is a direct estimate of the amount of ROS within the cells.

MCF-7 cells [5] = details: for percentage of the cells in early apoptotic phase: 48 h; for percentages of apoptotic cells (Annexin V+ cells): 48 hours incubation; for living cells (Annexin V−/7-AAD− cells): 48 hours
Protocol: Representative scatter plots show apoptosis of MCF-7 cells after 48 hours of incubation with different concentrations of (20, 40, and 80 mM) using the Annexin V-PE/7AAD detection kit. The percentages of apoptotic cells (Q2: late apoptotic and Q3: early apoptotic) were determined in Annexin V cells. Q1: necrotic cells, Q2: late apoptotic cells, Q3: early apoptotic cells, and Q4: living cells.

lung carcinoma (A549) = experiment: In vitro cytotoxicity against A549
pCDNA plasmid = experiment: Electrophoresis mobility shift assay, pCDNA plasmid; format: binding; details: 100 to 800 uM, 24 h and 48 h
Protocol: FIG. 5 illustrates an electrophoresis mobility shift assay for platinum compounds for an embodiment of the present invention. A pCDNA plasmid in the circular form was incubated with cisplatin, 1b, and 2a at different concentrations for 24 h (A) and 48 h (B).
Electrophoresis mobility shift assay is a common method that is applied to show the interaction of compounds with DNA. […] The shift was more notable with an increase in the concentrations from 100 to 800 uM, especially in the case of complex 2a; however, this compound at a higher concentration seemed to interact with the KBC loading dye and was trapped in the wells.

[6] = Table 3, trans-Pt(II) thiolate series A, 3a-e, read-out: (IC50 ± SD) μM SKOV3
[7] = Table 3, trans-Pt(II) thiolate series A, 3a-e, read-out: (IC50 ± SD) μM MCF-7
[8] = read-out: (IC50 ± SD) μM A549, Table 3, trans-Pt(II) thiolate series A, 3a-e and ligands
[9] = Homo sapiens, A549, read-out: (IC50 ± SD) μM A549
[10] = Table 1, Pt(II) isocyanide series 1a-c, 2a-c, read-out: IC50 (μM ± SD) SKOV3
[11] = Table 1, Pt(II) isocyanide series 1a-c, 2a-c, read-out: IC50 (μM ± SD) MCF-7
[12] = read-out: IC50 (μM ± SD) A549, Table 1, Pt(II) isocyanide series 1a-c, 2a-c
[13] = gold(I) complex study, read-out: IC50 SKOV3
[14] = gold(I) complex study, read-out: IC50 MCF-7
[15] = read-out: IC50 A549, gold(I) complex study

C=CC[P+](c1ccccc1)(c1ccccc1)[Pt-2]([S]c1ccccn1)([S]c1ccccn1)[P+](CC=C)(c1ccccc1)c1ccccc1 [complex 3a, trans-[Pt(PPh2allyl)2(κ^1—S—SR)2]]
IC50 [1, 6]: 6.23 µM
IC50 (breast carcinoma (MCF-7); [7]): 4.8 µM
IC50 [2]: 38.4 ± 2.06 µM
effect on the cell cycle (MCF-7 cells [3]): no clear effect
genotoxic effect (comet tail) (MCF-7 cells [4]; MCF-7, 10 and 50 μM): strong genotoxic ability
shift in the mobility of the plasmid (pGEM-FT plasmid): a little shift
ROS production (MFI/MFI0) (SKOV3 cells): moderately induce ROS
percentage of the cells in early apoptotic phase (MCF-7 cells [5]; 2.5 μM): 11.0%
percentage of the cells in early apoptotic phase (MCF-7 cells [5]; 5 μM): 40.8%
percentage of the cells in early apoptotic phase (MCF-7 cells [5]; 10 μM): 62.9%
IC50 (lung carcinoma (A549); [8]): 4.31 µM

Sc1ncccn1 [SpyN, pyrimidine-2-thiol]
IC50 (lung carcinoma (A549); [9]): > 100 µM

Cc1cc[c]([Pt-2]([C]#[N+]C(C)(C)C)([C]#[N+]C(C)(C)C)[c]2ccc(C)cc2)cc1 [complex 2a, [(p-tolyl)2Pt(CNR)2] (R=t-butyl)]
IC50 [1, 10]: 18.5 ± 2.38 µM
IC50 (breast carcinoma (MCF-7); [11]): 11.1 ± 0.59 µM
shift in the mobility of the plasmid (pCDNA plasmid): obvious shift in the mobility of the plasmid
IC50 (lung carcinoma (A549); [12]): 19.2 ± 2.59 µM

Sc1ccccn1 [Spy, pyridine-2-thiol]
IC50 (lung carcinoma (A549); [9]): > 100 µM

FC(F)(F)c1ccc(S)nc1 [Spy-5-CF3, 5-(trifluoromethyl)-pyridine-2-thiol]
IC50 (lung carcinoma (A549); [9]): > 100 µM

N.N.[Cl][Pt][Cl] [Cisplatin, reference compound]
IC50 [1, 10]: 14.6 ± 1.3 µM
IC50 [1, 6]: 14.5 µM
IC50 [1, 13]: 12.4 µM
IC50 (breast carcinoma (MCF-7); [11]): 13.4 µM
IC50 (breast carcinoma (MCF-7); [7]): 11.6 µM
IC50 (breast carcinoma (MCF-7); [14]): 11.5 µM
IC50 [2]: 29.5 ± 1.03 µM
IC50 (lung carcinoma (A549); [8]): 9.71 µM
IC50 (lung carcinoma (A549); [12]): 6.68 ± 0.72 µM
IC50 (lung carcinoma (A549); [15]): 7.62 µM

Sc1nc2ccccc2s1 [Sbt, benzothiazole-2-thiol]
IC50 (lung carcinoma (A549); [9]): > 100 µM

C=CCP(c1ccccc1)c1ccccc1 [PPh2allyl, allyldiphenylphosphine]
IC50 (lung carcinoma (A549); [9]): > 100 µM

[C](#[N+]Cc1ccccc1)[Au-][S]c1ncccn1 [complex 2]
IC50 [1, 13]: 6.26 µM
IC50 (breast carcinoma (MCF-7); [14]): 6.14 µM
induction of cellular apoptosis (MCF-7 cells [5]; gold(I) complex study, MCF-7): induces apoptosis in cancerous cells in a dose-dependent manner
IC50 (lung carcinoma (A549); [15]): 7.8 µM

OO [H2O2, reference compound]
ROS production (MFI/MFI0) (SKOV3 cells): induce ROS production within 20 minutes

Cc1cc[c]([Pt-2]([C]#[N+]C2CCCCC2)([C]#[N+]C2CCCCC2)[c]2ccc(C)cc2)cc1 [complex 2c, [(p-tolyl)2(CNR)2] (R=cyclohexyl)]
IC50 [1, 10]: 67.1 ± 1.54 µM
IC50 (breast carcinoma (MCF-7); [11]): 72.4 ± 2.32 µM
IC50 (lung carcinoma (A549); [12]): 44.3 ± 1.38 µM

Cc1cc[c]([Pt-2]([C]#[N+]Cc2ccccc2)([C]#[N+]Cc2ccccc2)[c]2ccc(C)cc2)cc1 [complex 2b, [(p-tolyl)2(CNR)2] (R=benzyl)]
IC50 [1, 10]: 55.3 ± 2.19 µM
IC50 (breast carcinoma (MCF-7); [11]): 62.3 ± 1.67 µM
IC50 (lung carcinoma (A549); [12]): 31.2 ± 2.27 µM

[CH3][Pt-2]([CH3])([C]#[N+]Cc1ccccc1)[C]#[N+]Cc1ccccc1 [complex 1b, [Me2Pt(CNR)2] (R=benzyl)]
IC50 [1, 10]: 15.9 ± 1.25 µM
IC50 (breast carcinoma (MCF-7); [11]): 12.5 µM
shift in the mobility of the plasmid (pCDNA plasmid): obvious shift in the mobility of the plasmid
percentages of apoptotic cells (Annexin V+ cells) (MCF-7 cells [5]; 80 uM): 77.22%
percentages of apoptotic cells (Annexin V+ cells) (MCF-7 cells [5]): 27.36%
living cells (Annexin V−/7-AAD− cells) (MCF-7 cells [5]; highest concentration (80)): 15.3%
living cells (Annexin V−/7-AAD− cells) (MCF-7 cells [5]; lowest concentration (20)): 72.1%
IC50 (lung carcinoma (A549); [12]): 21.4 ± 2.18 µM

COc1cccc2c1C(=O)c1c(O)c3c(c(O)c1C2=O)C[C@@](O)(C(=O)CO)C[C@@H]3O[C@H]1C[C@H](N)[C@H](O)[C@H](C)O1 [doxorubicin, reference compound]
percentage of degraded DNA in the tail (MCF-7 cells [4]; MCF-7, positive control, vs untreated cells): remarkably increased

[CH3][Pt-2]([CH3])([C]#[N+]C1CCCCC1)[C]#[N+]C1CCCCC1 [complex 1c, [Me2Pt(CNR)2] (R=cyclohexyl)]
IC50 [1, 10]: 44.6 ± 1.17 µM
IC50 (breast carcinoma (MCF-7); [11]): 68.3 ± 3.21 µM
IC50 (lung carcinoma (A549); [12]): 50.8 ± 1.64 µM

C=CC[P+](c1ccccc1)(c1ccccc1)[Pt-2]([Cl])([Cl])[P+](CC=C)(c1ccccc1)c1ccccc1 [complex A, cis-[Pt(PPh2allyl)2Cl2]]
IC50 [1, 6]: 34.5 ± 1.53 µM
IC50 (breast carcinoma (MCF-7); [7]): 19 ± 1.24 µM
IC50 [2]: 68.7 ± 1.21 µM
IC50 (lung carcinoma (A549); [8]): 22.5 ± 1.62 µM

Sc1nc2ccccc2[nH]1 [Sbi, benzimidazole-2-thiol]
IC50 (lung carcinoma (A549); [9]): > 100 µM
